Assay results published in patent US20050132448A1, “Assay for beta cell toxic macrolides” (priority 2001, published 2005).
“Also recorded” adds a separate entry of the source.

Columns and labels:
vATPase = details: 275 nM; cited from earlier work
Balb/c mice [1] = assay: Plasma immunoreactive insulin (radioimmunoassay); assay type: in vivo; details: 7 days after treatment
Procedure: Male Balb/c mice were provided by the Monash University Central Animal House and Breeding Facility. The Monash University Department of Biochemistry Animal Ethics Committee approved all animal experimentation. Bafilomycin A1 (Sigma) was dissolved in 70% ethanol then diluted 1 in 10 with sterile phosphate buffered saline (PBS) to give a working stock of 4.8 μg/ml. Groups of between 3 and 9 mice as indicated were administered 12 μg per kilogram (body weight) bafilomycin A1 by intraperitoneal injection, which should achieve a final concentration in the blood of 275 nM bafilomycin A1 assuming a blood volume of 70 ml per kg for mice. […] Control mice received the ethanol/PBS carrier solution that lacked the inhibitor.
Groups of 9 mice were treated with bafilomycin A1 or carrier solution then fasted, anaesthetised with penotobarbitone and challenged with glucose as described for the OGTT. Blood samples for insulin assay were collected from the orbital plexus from fasted mice or from mice 15 minutes after glucose challenge using 4×75 μl haematocrit tubes for each bleed. Serum samples were diluted 1 in 5 or 1 in 20 then assayed in duplicate for insulin content using a Linco sensitive rat insulin radioimmunoassay kit. […] Insulin content was determined by sensitive rat insulin RIA using a 1 in 1,000 dilution of the homogenates.

NOD/lt mice = assay: Acceleration of diabetes onset in NOD mice; assay type: in vivo; details: 12 ng per gram i.p. on 5 consecutive days, 11-week-old female mice
Procedure: The NOD mouse develops spontaneous diabetes due to an autoimmune mediated destruction of the pancreatic islet β-cells. The characteristics of diabetes development in the NOD mouse parallel those in humans, making the NOD mouse a useful model of human Type 1 diabetes. Lymphocytic infiltrates in the pancreatic islets, termed insulitis, first develops in NOD mice soon after weaning at 4 weeks of age and hyperglycaemia first appears from 18 to 32 weeks of age. Bafilomycin A1 was administered to NOD mice to test whether the onset of hyperglycaemia was accelerated.
Eleven-week-old female NOD/lt mice were injected intraperitoneally with either 12 ng per gram body weight of bafilomycin A1 (10 mice) or phosphate buffered saline carrier solution (10 mice) on each of 5 consecutive days. Blood glucose was monitored weekly and diabetes defined as a blood glucose measurement greater than 11 mmol/L.

Balb/c mice [2] = assay: Long-term effects on random blood glucose, weight and islet morphology/size; assay type: in vivo
Procedure: FIG. 6 is a graphical representation of islet size following administration of bafilomycin A1. Reduced islet size is a long-term consequence of vacuolar ATPase inhibition. Pancreas morphology was examined at either 1, 7, 26 or 90 days after administration of bafilomycin A1. Islet size was determined by measuring the areas of the pancreas sections positive for staining with insulin antibody using MCID software. • Controls—223 islets from 12 mice • 1 day—81 islets from 3 mice • 7 days—125 islets from 3 mice • 26 days—90 islets from 4 mice • 90 days—81 islets from 4 mice • The black square represents the median, the dotted boxes 25-75th percentiles, bars the 10-90th percentiles, and outliers by dots.
The pancreas, liver, kidney and brain were dissected from anaesthetised mice and immediately fixed in formalin. Paraffin embedded sections (4 μm) were either stained with haemotoxylin and eosin or prepared for immunohistochemistry or indirect immunofluorescence. Immunostaining was performed on de-paraffinised sections as follows. The section was blocked in PBS containing 1% skim milk powder for 1 hour. Anti-insulin antiserum raised in Guinea pig (Dako) was diluted 1 in 50 in PBS 1% skim milk powder and left at room temperature for 60 minutes. Sections were washed in PBS and incubated with 1:200 dilution of horse radish peroxidase conjugated anti-guinea pig antiserum (Sigma) or a 1:400 dilution of FITC-conjugated anti-guinea pig serum (Sigma) for 1 hour. Endogenous peroxidase activity was inactivated using 0.5% hydrogen peroxide in methanol prior to the antibody incubations and bound HRP conjugated antibody was detected using Sigma FAST-DAB peroxidase tablets. FITC was detected using an Olympus epifluorescence microsocope and images were captured and analysed using a digital camera and MCID software.
The long-term effects of bafilomycin A1 on blood glucose concentrations and islet morphology were investigated in 4 mice treated twice with a weekly interval. Random blood glucose levels (RBG) and weight were determined, weekly over 90 days and results were compared to a control group of 3 mice treated with carrier solution.

Balb/c mice [3] = assay: Intra-islet insulin by indirect immunofluorescence on pancreas sections; assay type: in vivo
Procedure: FIG. 2 is a graphical representation of vacuolar ATPase inhibition causing increased islet insulin content of secretory granules in islet β cells. Infra-islet insulin was detected in paraffin embedded sections by indirect immunofluorescence using an anti-pig insulin antibody. Digitised images collected on an epifluorescent microscope were analysed for staining density using MCID image analysis software to provide a semi-quantitative measure of the amount of bound anti-insulin antibody. At least 9 islets were measured for each of 5 control mice and 6 bafilomycin A1-treated mice, and individual values for each islet from all mice in each group were combined for analysis. A measurement was made in each islet, and the background measured in exocrine tissue adjacent to the same islet was subtracted. Units are arbitrary fluorescence units and the data are expressed as the mean and standard deviation.
The pancreas, liver, kidney and brain were dissected from anaesthetised mice and immediately fixed in formalin. […] Endogenous peroxidase activity was inactivated using 0.5% hydrogen peroxide in methanol prior to the antibody incubations and bound HRP conjugated antibody was detected using Sigma FAST-DAB peroxidase tablets. FITC was detected using an Olympus epifluorescence microsocope and images were captured and analysed using a digital camera and MCID software. […]

Structure (SMILES): CO/C1=C\C(C)=C\[C@@H](C)[C@@H](O)[C@@H](C)C/C(C)=C/C=C/[C@H](OC)[C@@H]([C@@H](C)[C@@H](O)[C@H](C)[C@@]2(O)C[C@@H](O)[C@H](C)[C@@H](C(C)C)O2)OC1=O [bafilomycin A1]
- inhibition of in vitro vATPase activity (vATPase): sufficient to inhibit
- plasma insulin level fifteen minutes after glucose challenge (Balb/c mice [1]): 15±10
- fasting plasma immunoreactive insulin level (Balb/c mice [1]; fasting): 1.2±0.8
- onset of islet beta cell destruction and hyperglycaemia (NOD/lt mice): slight acceleration
- total islet area as a percentage of the total area of pancreas (Balb/c mice [2]; 1 day): 0.33%
- islet size vs controls (Balb/c mice [2]; 1 day treatment group): no differences
- total islet area as a percentage of the total area of pancreas (Balb/c mice [2]; 7 day treated mice): 0.30%
- islet size vs controls (Balb/c mice [2]; 7 day treatment group): no differences
- total islet area as a percentage of the total area of pancreas (Balb/c mice [2]; 26 day treated mice): 0.23%
- morphology of kidney, liver, testes and brain (Balb/c mice [2]; 90 day end-point): did not reveal any gross morphological changes
- morphology of the islets (Balb/c mice [2]; 90 day end-point, 2 doses): signs of fragmentation or neogenesis
- total islet area as a percentage of the total area of pancreas (Balb/c mice [2]; 90 day treated mice): 0.16%
- islet size vs controls (Balb/c mice [2]; treated 26 days previously): significant decrease
- mean islet size (Balb/c mice [2]; treated 26 days previously): 4900 μm2
- islet size vs controls (Balb/c mice [2]; treated 90 days previously): significant decrease
- mean islet size (Balb/c mice [2]; treated 90 days previously, 2 doses): 2800 μm^2
- increased level of RBG first detectable after treatment (Balb/c mice [2]; treated twice a week apart): 50 days
- weight of treated vs control groups (Balb/c mice [2]; treated twice a week apart, followed 90 days): did not differ significantly; also recorded: No significant difference
- random blood glucose levels (RBG) vs controls (Balb/c mice [2]; treated twice a week apart, weekly measurement for 90 days): small but significant increase
- net fluorescence emitted by islets (median) (Balb/c mice [3]; 1 day after administration): 57.9 arbitrary fluorescence units
- net fluorescence emitted by islets (median) (Balb/c mice [3]; 7 days after administration): 59.9 arbitrary fluorescence units
